These results are taken from publication PMC9907012, “Synthesis and characterisation of new antimalarial fluorinated triazolopyrazine compounds” (Beilstein Journal of Organic Chemistry, 2023).

Like-named read-outs stand apart in the source and are kept apart here.

Data set [1] concerns P. falciparum Dd2 (chloroquine, pyrimethamine and mefloquine drug-resistant strain). Nature of the data set: In vitro anti-plasmodial image-based assay, P. falciparum Dd2. The class given is cell-based, Plasmodium falciparum. The note with it: for IC50 / inhibition at 80 µM: Plasmodium falciparum, DD2; for IC50: 72 h incubation, read-out: Pf Dd2 IC50 ± SD; for SI for Dd2: SI = HEK293 IC50/parasite IC50; for inhibition at 80 µM: top dose of 80 µM, read-out: Pf Dd2 inhibition at the top dose (no IC50 given). Here is the method: (§1) S4: In vitro anti-plasmodial image-based assay
(§2) Plasmodium falciparum 3D7 and Dd2 parasites were cultured in RPMI1640 (Life Technologies, Camarillo, CA, USA) supplemented with 2.5 mg/mL Albumax II, 5% AB human serum, 25 mM HEPES, and 0.37mM hypoxanthine. Ring stage parasites were treated with compounds following two rounds of sorbitol synchronization, as previously described.
(§3) Following incubation of assay plates for 72 h at 37 °C, and 5% CO2 and 5% O2, parasites were stained with 2-(4-amidinophenyl)-1H-indole-6-carboxamidine (DAPI) and imaged using an Opera PhenixTM High Content Screening System (PerkinElmer, Waltham, MA, USA). Images were analysed using Harmony software (PerkinElmer, Waltham, MA, USA).
(§4) S5: In vitro cytotoxicity assay
(§5) Human embryonic kidney (HEK293) cells were maintained in DMEM (Life Technologies, Camarillo, CA, USA) containing 10% FBS (Hyclone™ ThermoFisher, Melbourne, Australia).
(§6) Cytotoxicity testing was undertaken, as previously described. In brief, 5 μL of test compound was added to the well of black/clear tissue culture-treated, 384-well plates containing 3000 adherent HEK 293 cells/well in 45 μL and incubated 72 h at 37 °C in 5% CO2.
(§7) After incubation, the supernatant was removed and replaced with 40 μL of 10% Alamar Blue per well. Plates were incubated for 5−6 h and measured for fluorescence at 530 -nm excitation and 595-nm emission. The % inhibition was calculated using 0.4% DMSO (no inhibition) and […]
(§8) IC 50 values were obtained by plotting % inhibition against log dose using GraphPad Prism v.6 (San Diego, CA, USA) nonlinear regression with a […]

Data set [2] relates to P. falciparum 3D7 (chloroquine-sensitive strain). Description: In vitro anti-plasmodial image-based assay, P. falciparum 3D7. The class given is cell-based, Plasmodium falciparum. The note with it: for IC50 / inhibition at 80 µM: Plasmodium falciparum, 3D7; for IC50: 72 h incubation, read-out: Pf 3D7 IC50 ± SD; for SI for 3D7: SI = HEK293 IC50/parasite IC50; for inhibition at 80 µM: top dose of 80 µM, read-out: Pf 3D7 inhibition at the top dose (no IC50 given). How it is done: as §1, §2, §3, §4, §5, §6, §7, §8

Data set [3] relates to Plasmodium falciparum (Pf). The conditions noted are these: previous study; read-out: IC50 (antimalarial activity); cited from earlier work.
[4] abbreviates: values marked d are estimated IC50 as a plateau of inhibition was not reached.

A word on the IC50: it is the midpoint of a concentration-inhibition curve. In the case of `FC(F)c1ncc(OCCc2ccccc2)n2c(-c3ccc(Cl)cc3)nnc12` [Compound 15, 3-(4-Chlorophenyl)-8-(difluoromethyl)-5-phenethoxy-[1,2,4]triazolo[4,3-a]pyrazine], the figures for the IC50 in data set [1] (setting [4]) and in data set [2] (setting [4]) were 14.3 ± 2.26 µM and 18.8 ± 0.21 µM, respectively. Also, the “SI for Dd2” value in data set [1] is on record as >6. Moreover, in data set [2], the “SI for 3D7” value was >4.
Broadly, the inhibition is how much of the control response was suppressed. Turning to `CCOc1cncc2nnc(-c3ccc(OC(F)F)cc3)n12` [Compound 7, 3-(4-(difluoromethoxy)phenyl)-5-ethoxy-[1,2,4]triazolo[4,3-a]pyrazine], the inhibition at 80 µM in data set [1] and in data set [2] was < 81% throughout.
As usually defined, the melting point is the temperature of the solid-liquid transition. As to `N#Cc1ccc(-c2nnc3cncc(OCCc4ccccc4)n23)cc1` [Compound 6, 4-(5-phenethoxy-[1,2,4]triazolo[4,3-a]pyrazin-3-yl)benzonitrile], the melting point lay within 136 to 138 °C. For the same compound, the half-inhibitory concentration (IC50) in data set [1] (setting [4]) is 1.17 ± 0.09 µM. Moreover, in data set [1], the “SI for Dd2” value is >68. Also, the IC50 in data set [2] (setting [4]) was 1.15 ± 0.05 µM. In addition, the “SI for 3D7” value in data set [2] is listed as >70.
`CCc1nc(N)nc(N)c1-c1ccc(Cl)cc1` [Pyrimethamine, reference compound]: in data set [1], the inhibition at 80 µM is < 33%. Further, the IC50 in data set [2] (controls) is 0.0152 ± 0.0012 µM. In addition, the “SI for 3D7” value in data set [2] is >657.
Compound `N#Cc1ccc(-c2nnc3c(C(F)F)ncc(OCCc4ccccc4)n23)cc1` [Compound 18, 4-(8-(Difluoromethyl)-5-phenethoxy-[1,2,4]triazolo[4,3-a]pyrazin-3-yl)benzonitrile] showed a melting point of 109 to 111 °C. For the same compound, the IC50 in data set [1] (setting [4]) was 58.6 ± 1.68 µM. Further, in data set [1], the “SI for Dd2” value was >1. Besides, in data set [2] (setting [4]), the IC50 is 31 ± 2.37 µM. Further, in data set [2], the “SI for 3D7” value is on record as >3.
Turning to `N#Cc1ccc(-c2nnc3cncc(Cl)n23)cc1` [Compound 3], the IC50 is 26.2 ± 1.01 µM in data set [1] (setting [4]) and 35.5 ± 3.33 µM in data set [2] (setting [4]). In addition, in data set [1], the “SI for Dd2” value is >3. For the same compound, in data set [2], the “SI for 3D7” value is listed as >2.
The like results for `FC(F)Oc1ccc(-c2nnc3c(C(F)F)ncc(OCCc4ccccc4)n23)cc1` [Compound 12, 3-(4-(Difluoromethoxy)phenyl)-8-(difluoromethyl)-5-phenethoxy-[1,2,4]triazolo[4,3-a]pyrazine] were, in that order, 19.6 ± 0.42 µM, 16.4 ± 1.13 µM, >4 and >5.
Consider `COc1ccc(C[C@H](N)C(=O)N[C@H]2[C@@H](O)[C@H](n3cnc4c(N(C)C)ncnc43)O[C@@H]2CO)cc1` [Puromycin, reference compound], for which the IC50 in data set [1] (controls) was found to be 0.102 ± 0.0095 µM; in data set [2] (controls), 0.079 ± 0.0057 µM. In addition, the “SI for Dd2” value in data set [1] was found to be 98. Besides, the “SI for 3D7” value in data set [2] came out at 127.
As to `FC(F)Oc1ccc(-c2nnc3c(C(F)(F)F)ncc(OCCc4ccccc4)n23)cc1` [Compound 10, 3-(4-(Difluoromethoxy)phenyl)-5-phenethoxy-8-(trifluoromethyl)-[1,2,4]triazolo[4,3-a]pyrazine], the IC50 is 17.1 ± 0.71 µM in data set [1] (setting [4]) and 11.3 ± 1.45 µM in data set [2] (setting [4]). Moreover, in data set [1], the “SI for Dd2” value is recorded as >4. Further, the “SI for 3D7” value in data set [2] was >7.
Take `Clc1ccc(-c2nnc3cncc(Cl)n23)cc1` [Compound 2]: the values for the IC50 in data set [1] (setting [4]), in data set [3] and in data set [2] (setting [4]) were 17.1 ± 0.43 µM, 12.6 µM and 18.9 ± 0.63 µM, respectively. The “SI for Dd2” value in data set [1] is reported as >4. The “SI for 3D7” value in data set [2] was >4.
In the case of `FC(F)Oc1ccc(-c2nnc3cncc(OCCc4ccccc4)n23)cc1` [Compound 4], the IC50 in data set [1] (setting [4]) was 0.26 ± 0.01 µM; in data set [2] (setting [4]), 0.24 ± 0.01 µM. The “SI for Dd2” value in data set [1] is reported as >312. In addition, the “SI for 3D7” value in data set [2] is given as >329.
The matching figures for `FC(F)(F)c1ncc(OCCc2ccccc2)n2c(-c3ccc(Cl)cc3)nnc12` [Compound 13, 3-(4-Chlorophenyl)-5-phenethoxy-8-(trifluoromethyl)-[1,2,4]triazolo[4,3-a]pyrazine]: 10.2 ± 0.75 µM, 9.43 ± 0.44 µM, >8 and >9.
As to `CC(F)(F)c1ncc(OCCc2ccccc2)n2c(-c3ccc(C#N)cc3)nnc12` [Compound 17, 4-(8-(1,1-Difluoroethyl)-5-phenethoxy-[1,2,4]triazolo[4,3-a]pyrazin-3-yl)benzonitrile], the inhibition at 80 µM in data set [1] and in data set [2] was < 33% each time.
For `CCOc1cncc2nnc(-c3ccc(Cl)cc3)n12` [Compound 8, 3-(4-chlorophenyl)-5-ethoxy-[1,2,4]triazolo[4,3-a]pyrazine], the IC50 in data set [1] (setting [4]) is 2.91 ± 0.18 µM; in data set [2] (setting [4]), 2.72 ± 0.03 µM. In data set [1], the “SI for Dd2” value is recorded as >27. For the same compound, the “SI for 3D7” value in data set [2] was >29.
Consider `Clc1ccc(-c2nnc3cncc(OCCc4ccccc4)n23)cc1` [Compound 5, 3-(4-chlorophenyl)-5-phenethoxy-[1,2,4]triazolo[4,3-a]pyrazine], for which the melting point lay in the range of 131 to 132 °C. The IC50 in data set [1] (setting [4]) was 0.22 ± 0.01 µM. Besides, in data set [1], the “SI for Dd2” value is on record as >364. For the same compound, the IC50 in data set [2] (setting [4]) was 0.2 ± 0.02 µM. Further, the “SI for 3D7” value in data set [2] was >396.
Take `FC(F)Oc1ccc(-c2nnc3cncc(Cl)n23)cc1` [Compound 1]: the values for the IC50 in data set [1] (setting [4]) and in data set [2] (setting [4]) were 34.5 ± 4.46 µM and 45.2 ± 5.42 µM, respectively. The “SI for Dd2” value in data set [1] is >2. For the same compound, the “SI for 3D7” value in data set [2] is >2.
In the case of `N#Cc1ccc(-c2nnc3c(C(F)(F)F)ncc(OCCc4ccccc4)n23)cc1` [Compound 16, 4-(5-Phenethoxy-8-(trifluoromethyl)-[1,2,4]triazolo[4,3-a]pyrazin-3-yl)benzonitrile], the results for the concentration for half-maximal inhibition (IC50) in data set [1] (setting [4]) and in data set [2] (setting [4]) were 45.1 ± 6.58 µM and 22.5 ± 1.03 µM, respectively. The “SI for Dd2” value in data set [1] is >2. Further, in data set [2], the “SI for 3D7” value was >4.
